Data as given in patent publication US9814736B2, “Use of 2-methylene-19-nor-(20S)-1α,25-dihydroxyvitamin D3 and calcimimetics to treat secondary hyperparathyroidism” (Wisconsin Alumni Research Foundation, priority 2014, dated 2017).
Entries after “also recorded” stand apart in the source; their conditions may differ. Read-outs that look alike come from different tables or passages of the source.

Key:
[1] = test system: cultured bovine parathyroid cells; conditions: cited from earlier work
serum PTH [2] = conditions: uremic dogs; cited from earlier work
serum PTH [3] = conditions: uremic rats; cited from earlier work
[4] = Phase 2B double-blind, randomized, placebo-controlled study in hemodialysis patients: safety; format: in vivo, human
Method: FIG. 9. Study enrollees exceeding safety threshold values for iPTH, Ca, and P.
FIG. 10. Number of adverse events (AEs) and serious adverse events (SAEs) for study enrollees.
(§1) Subjects were administered DP001 (2MD) or placebo accordingly the study schema of FIG. 3. Subject disposition is illustrated in FIG. 4. As indicated, 129 subject were screened. Of these, 62 were enrolled and 67 were screen failures. Of the 62 enrollees, 28 were administered a placebo and 34 were administered DP001 (440 ng, 3×/wk for up to 12 weeks). Of the 28 enrollees who were administered the placebo, 22 completed the 12 week study and 6 discontinued for reasons illustrated. Of the 34 enrollees who were administered DP001, 31 completed the 12 week study and 3 discontinued for reasons illustrated.
The remaining 8 subjects were only dose-adjusted downward, indicating a starting dose lower than 440 ng would have been sufficient to suppress PTH. […] Only one patient receiving DP001 (2MD) had two consecutive corrected serum calcium values>10.5 mg/dL.

PTH [5] = test: Phase 2B double-blind, randomized, placebo-controlled study in hemodialysis patients: efficacy (serum iPTH); format: in vivo, human
Method: FIG. 3. Study schema for study participants. Participants discontinued use of the active vitamin D analogue (AVD) and cinacalcet (if applicable) prior to a washout period and subsequent administration of placebo or DP001 (440 ng, 3×/wk, for up to 12 weeks).
FIG. 6. Percentage of subjects achieving primary endpoint of two consecutive ≧30% decrease from his/her averaged baseline iPHT level during the 12-week treatment period. Pre-dialysis serum iPTH levels were measured using the Access Intact iPTH Assay from Beckman Coulter (p<0.0001, Fisher's exact test).
FIG. 7. Secondary efficacy endpoint as measured as the mean percentage change in serum iPTH from the averaged baseline value to the average of the last 2 on-treatment values. Data are presented as mean±SEM. p<0.0001, One-way ANOVA.
as §1
The Primary Efficacy Endpoint was the proportion of subjects who achieved two consecutive ≧30% decrease from his/her Averaged Baseline iPTH level during the 12-week treatment period. (See FIG. 6). Pre-dialysis serum iPTH levels were measured using the Access Intact iPTH Assay from Beckman Coulter (p<0.0001, Fisher's exact test).
The secondary efficacy endpoint was the mean percentage change in serum iPTH from the Averaged Baseline value to the average of the last 2 on-treatment values. Data are presented in FIG. 7 as mean±SEM. p<0.0001, One-way ANOVA.

PTH [6] = test: Phase 2A open-label dose-ranging study of DP001 in hemodialysis patients; format: in vivo, human; conditions: dialysis patients, orally 3 times weekly for 4 weeks
Method: FIG. 1. Change in plasma iPTH (%) versus concentration of DP001 (2MD). Chronic kidney disease—stage 5 patients were given DP001 at the indicated dose orally 3 times weekly for 4 weeks. Data are presented as mean±SEM. Plasma iPTH levels were measured using the Immulite Intact iPTH Assay from Siemens Healthcare Diagnostics.
FIG. 2. Safety parameter versus concentration of DP001 (2MD) for patients of FIG. 1. Data are presented as mean (standard deviation (SD)).
A Phase 2A, open-label, dose-ranging study of DP001 in hemodialysis patients was conducted to determine a starting dose of DP001 for the Phase 2B, randomized, placebo-controlled study described in this Example. […] (See FIGS. 1 and 2). Based on the results in FIGS. 1 and 2, an efficacious and safe starting dose of 440 ng was chosen. Data are presented as mean±SEM. Plasma iPTH levels were measured using the Immulite Intact iPTH Assay from Siemens Healthcare Diagnostics.

[7] = test system: MRL/lpr mouse model of systemic lupus erythematosus; conditions: cited from earlier work

C=C1/C(=C\C=C2/CCC[C@]3(C)C([C@H](C)CC#CC(C)(C)O)=CC[C@@H]23)C[C@@H](O)C[C@@H]1O [1,25-(OH)2-16-ene-23-yne-D3]
suppression of PTH secretion relative to calcitriol [1]: nearly as effective as calcitriol

C=C1C(=CC=C2CCCC3(C)C2CCC3C(C)CCCCCC(C)(C)O)CC(O)CC1O (stereo not shown) [1,25-(OH)2-24-dihomo-D3]
suppression of PTH secretion relative to calcitriol [1]: nearly as effective as calcitriol

C=C1C(=CC=C2CCCC3(C)C2CCC3C(C)C=CCCCCC(C)(C)O)CC(O)CC1O (stereo not shown) [1,25-(OH)2-24-trihomo-22-ene-D3]
suppression of PTH secretion relative to calcitriol [1]: nearly as effective as calcitriol

C=C1/C(=C\C=C2/CCC[C@]3(C)[C@@H]([C@H](C)OCCC(C)(C)O)CC[C@@H]23)C[C@@H](O)C[C@@H]1O [22-oxacalcitriol]
suppression of serum PTH (serum PTH [2]): suppress serum PTH | suppression of PTH secretion relative to calcitriol [1]: nearly as effective as calcitriol | suppression of serum PTH (serum PTH [3]): suppress serum PTH

C=C1[C@H](O)CC(=C/C=C2\CCC[C@@]3(C)C2CCC3[C@@H](C)CCCC(C)(C)O)C[C@H]1O (stereo partly drawn) [DP001, 2-methylene-19-nor-(20S)-1α,25-dihydroxyvitamin D3]
serum calcium values ([4]; 12-week treatment): remained in the normal range | patients with two consecutive corrected serum calcium values >10.5 mg/dL ([4]; 34 enrollees on DP001): one | subjects that reached the safety threshold for PTH ([4]; 34 enrollees on DP001, 440 ng 3x/wk up to 12 weeks): 14 subjects | adverse event reporting versus placebo ([4]; between treatment groups): no significant differences in adverse event reporting between treatment groups | patients surpassing corrected-serum calcium and phosphorus product safety threshold ([4]; both had high serum phosphorus at baseline): two | serious adverse events (SAEs) related to drug ([4]; judged by investigators): No serious adverse events (SAEs) were judged by the investigators to be related to DP001 | subjects achieving primary endpoint (two consecutive ≧30% decrease from averaged baseline iPTH) (PTH [5]; CKD-5D, 3x weekly oral, starting dose 440 ng, 12-week treatment, p<0.0001): 78 % of subjects | reduction of serum iPTH (secondary endpoint: mean percentage change from averaged baseline) (PTH [5]; CKD-5D, 3x weekly oral, starting dose 440 ng, by 12 weeks, p<0.0001): 46% | PTH lowering in subjects previously treated with AVD and cinacalcet (calcimimetic) (PTH [5]; DP001 alone, CKD-5D patients previously on cinacalcet): effectively reduced PTH levels; also recorded: successfully treats SHPT in patients previously taking a calcimimetic | change in serum calcium (PTH [6]): without changing serum calcium | suppression of PTH (plasma iPTH) (PTH [6]): suppresses PTH in dialysis patients in a dose-dependent fashion

C=C1/C(=C\C=C2/CCC[C@]3(C)[C@@H]([C@H](C)CCCC(C)(C)O)CC[C@@H]23)C[C@@H](O)C[C@@H]1O [calcitriol, 1α,25-(OH)2D3]
hypercalcemia ([7]; accompanying calcitriol treatment): severe hypercalcemia always accompanied this treatment | proteinuria ([7]; calcitriol administered through the diet): completely prevents proteinuria
